# Source: patent USRE37781E1, “Substituted cyclic carbonyls and derivatives thereof useful as retroviral protease inhibitors” (DuPont Pharmaceuticals Company, priority 1991, dated 2002)
# Where two headings read alike, the source gives them in different places.
# What was measured:
# [1] = target: single-chain tethered dimer of HIV protease (Human immunodeficiency virus 1, UniProt P04585); assay: biochemical; type: biochemical
# Description: HIV Protease Inhibition Assay—HPLC Method
# Active protease was prepared as described therein by extraction with 67% acetic acid, dilution 33-fold with water, dialysis against water and then against a “refolding buffer” consisting of 20 mM MES, 1 mM dithiothreitol and 10% glycerol. Protease was stored as a stock preparation at 10 uM in refolding buffer.
# Substrate: Peptide of sequence: aminobenzoyl-Ala-Thr-His-Gln-Val-Tyr-Phe(NO2)-Val-Arg-Lys-Ala containing p-nitrophenylalanine, was prepared by solid phase synthesis as previously described Cheng et al., op.cit. Stock solutions of 2 mM substrate were prepared in DMSO.
# Inhibitory compounds were dissolved in sufficient DMSO to make 3 mM stock solutions. All further dilutions were prepared in “assay buffer”: 1M NaCl, 50 mM MES, pH 5.5, 1 mM EDTA, 1 mM DTT, […] glycerol.
# Enzyme reaction: In a 2 ml screw-cap centrifuge tube were added 50 ul protease (final concentration 0.25 nM) and 0.1 ml inhibitory compound (final concentration […]). After 15 min preincubation at room temperature, the reaction was started with the addition of 0.05 ml substrate (final concentration 5 uM). Incubation was carried out at 30 C. for 1 hr. The reaction was stopped with 1 ml 0.1M ammonium hydroxide.
# HPLC measurement of product formation: The product (aminobenzoyl-Ala-Thr-His-Gln-Val-Tyr) was separated from substrate on a Pharmacia MonoQ anion exchange column. The injection volume was 0.2 ml. The mobile phases were: A (20 mM trisHCl, pH 9.0, 0.02% sodium Azide, 10% acetonitrile), B (20 mM tris HCl, pH 9.0, 0.02% sodium azide, 0.5M ammonium formate, 10% acetonitrile). The mobile phases were pumped at 1 ml/min, with a gradient from 0 to 30% B in 5 min, 100% B for 4 min to wash the column, and a re-equilibration for 4 min. The retention time of the product was 3.6 min. Detection with a Shimadzu model RF535 fluorescence monitor was at 330 nm (excitation) and 430 (emission).
# [2] = system: HIV-1 (RF) in MT-2 cells; assay: microbe, parasite or virus in culture; type: cell-based
# Method in brief: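 HIV-1 laboratory strains (RF, MN, IIIB) grown in H9 cells in RPMI 1640 with 5% FCS; infections in MT-2 cells. Viral RNA quantified by hybridization with biotinylated gag/pol capture probes on streptavidin plates and alkaline phosphatase-conjugated reporter probes; BH10 gag-pol in vitro transcripts serve as RNA standards.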
# [3] = target: T1, HIV protease (Human immunodeficiency virus type 1 group M subtype B, UniProt P04585); assay: biochemical; design: species or system HIV-1
# T1 construct: plasmid containing HIV protease under the control of an inducible T7 promoter; made in house; host or cells: E. coli (inclusion bodies, T7 promoter)
# Description: HIV Protease Inhibition Assay—Spectroscopic Method
# Inclusion bodies were solubilized in 8M urea, 50 mM tris pH 8.0. Protease activity was recovered by dilution 20-fold into buffer containing 50 mM sodium acetate pH 5.5, 1 mM EDTA, 10% glycerol and 5% ethylene glycol. Enzyme was used at a final concentration of 1.0-10 ug/ml.
# Stock solutions of 10 mM were prepared in DMSO.
# All further dilutions were done in DMSO.
# [4] = Human immunodeficiency virus 1, MT2, HIV RNA assay, HIV-1 infected MT-2 cells, class symbols, read-out: IC90
# [5] = HIV protease inhibition, class symbols, read-out: Ki
# [6] = Human immunodeficiency virus 1, MT2, Table 1c, read-out: IC90
# [7] = Human immunodeficiency virus 1, MT2, Table 2A, read-out: IC90
# [8] = Human immunodeficiency virus 1, MT2, second table headed Table 2A, read-out: IC90
# [9] = second table headed Table 2A, read-out: Ki
smiles,measurement,setting,value
C=COCCN1C(=O)N(CCOC=C)C(Cc2ccccc2)C(O)C(O)C1Cc1ccccc1 (centres unmarked) [Example 4D],Ki,[1],0.01 to 1 µM
O=S1(=O)N(CC2CC2)CC(O)C(Cc2ccccc2)N1CC1CC1 (centres unmarked) [30J],Ki,"[1]; Table 2t, read-out: Ki",> 1 µM
O=C1N(CC2CCCC2)C(Cc2ccccc2)C(O)C(O)C(Cc2ccccc2)N1CC1CCCC1 (centres unmarked) [Example 6H],IC90,[2]; [4],< 10 µg/mL
same,Ki,[1],< 0.01 µM
O=C1N(Cc2cccc(O)c2)C(Cc2ccccc2)C(O)C(O)C(Cc2ccccc2)N1CC1CC1 (centres unmarked) [Example 6D],IC90,"[2]; HIV RNA assay, HIV-1 infected MT-2 cells, class symbols",+++ (+++=<10 μg/mL)
same,Ki,[1]; [5],< 0.01 µM
NC(=NO)c1cccc(CN2CCC(O)C(Cc3ccccc3)N(Cc3cccc(C(N)=NO)c3)C2=O)c1 (centres unmarked) [30R],Ki,"[1]; Table 2t, read-out: Ki",< 0.01 µM
NCc1cccc(CN2C(=O)N(Cc3cccc(CN)c3)C(Cc3ccccc3)C(O)C(O)C2Cc2ccccc2)c1 (centres unmarked) [Example 6ZK],IC90,[2]; [4],10 to 100 µg/mL
same,Ki,[1],0.01 to 1 µM
O=C1NC(Cc2ccccc2)C(O)C(O)C(Cc2ccccc2)N1CC1CC1 (centres unmarked) [Example 4X],Ki,[1]; [5],0.01 to 1 µM
O=C1N(CC2CC2)CCC(O)C(Cc2ccccc2)N1CC1CC1 (centres unmarked) [30O],Ki,"[1]; Table 2t, read-out: Ki",> 1 µM
O=S1(=O)N(Cc2ccccc2)CCC(O)C(Cc2ccccc2)N1Cc1ccccc1 (centres unmarked) [30Q],Ki,"[1]; Table 2t, read-out: Ki",> 1 µM
N#Cc1cccc(CN2CCC(O)C(Cc3ccccc3)N(Cc3cccc(C#N)c3)C2=O)c1 (centres unmarked) [30P],Ki,"[1]; Table 2t, read-out: Ki",> 1 µM
O=C1N(Cc2ccc(CO)cc2)CC(O)C(Cc2ccccc2)N1Cc1ccc(CO)cc1 (centres unmarked) [30B],Ki,"[1]; Table 2t, read-out: Ki",> 1 µM
O=C1N(Cc2ccc(CO)cc2)CCC(O)C(Cc2ccccc2)N1Cc1ccc(CO)cc1 (centres unmarked) [30N],Ki,"[1]; Table 2t, read-out: Ki",0.01 to 1 µM
O=C1N(CCCCCCO)CC(O)C(Cc2ccccc2)N1CCCCCCO (centres unmarked) [30G],Ki,"[1]; Table 2t, read-out: Ki",> 1 µM
O=C1N(Cc2ccccc2)CCC(=NO)C(Cc2ccccc2)N1Cc1ccccc1 (centres unmarked) [30T],Ki,"[1]; Table 2t, read-out: Ki",> 1 µM
O=C1N(Cc2ccccc2)CC(O)C(Cc2ccccc2)N1Cc1ccccc1 (centres unmarked) [30U],Ki,"[1]; Table 2t, read-out: Ki",> 1 µM
N#CN=C1N(Cc2ccc([N+](=O)[O-])cc2)C(Cc2ccccc2)C(O)C(O)C(Cc2ccccc2)N1Cc1ccc([N+](=O)[O-])cc1 (centres unmarked) [Example 1CB],IC90,"[2]; Human immunodeficiency virus 1, MT2",10 to 100 µg/mL
same,melting point,,130.3 °C
same,Ki,"[3]; Ki, Table 1c, cyclic guanidines",0.01 to 1 µM
N#CN=C1N(Cc2ccc(N)cc2)C(Cc2ccccc2)C(O)C(O)C(Cc2ccccc2)N1Cc1ccc(N)cc1 (centres unmarked) [Example 1CE],IC90,[2]; [6],< 10 µg/mL
same,melting point,,226.3 °C
same,Ki,[3]; Ki,0.01 to 1 µM
CN1C(=O)N(Cc2ccccc2)C(Cc2ccccc2)C(O)C(O)C1Cc1ccccc1 (centres unmarked) [Example 2H],IC90,[2]; [7],< 10 µg/mL
same,IC90,[2]; [8],< 10 µg/mL
same,melting point,,81 °C
same,Ki,"[3]; Table 2A, read-out: Ki",0.01 to 1 µM
same,Ki,[3]; [9],0.01 to 1 µM
O=C1CCN(Cc2ccccc2)C(=O)N(Cc2ccccc2)C1Cc1ccccc1 (centres unmarked) [30S],Ki,"[1]; Table 2t, read-out: Ki",> 1 µM
O=C1N(Cc2ccc(F)c(C(F)(F)F)c2)C(Cc2ccccc2)C(O)C(O)C(Cc2ccccc2)N1Cc1ccc(F)c(C(F)(F)F)c1 (centres unmarked) [Example 2K],IC90,[2]; [7],< 10 µg/mL
same,IC90,[2]; [8],< 10 µg/mL
same,melting point,,167.2 °C
same,Ki,"[3]; Table 2A, read-out: Ki",0.01 to 1 µM
same,Ki,[3]; [9],0.01 to 1 µM
N#CN=C1N(CC2CCCC2)C(Cc2ccccc2)C(O)C(O)C(Cc2ccccc2)N1CC1CCCC1 (centres unmarked) [Example 1BV],IC90,[2]; [6],< 10 µg/mL
same,melting point,,99.7 °C
same,Ki,[3]; Ki,< 0.01 µM
CC(C)=CCN1C(=O)N(CC=C(C)C)C(Cc2ccccc2)C(O)C(O)C1Cc1ccccc1 (centres unmarked) [Example 2A],IC90,[2]; [7],< 10 µg/mL
same,IC90,[2]; [8],< 10 µg/mL
same,melting point,,165.1 °C
same,Ki,"[3]; Table 2A, read-out: Ki",< 0.01 µM
same,Ki,[3]; [9],< 0.01 µM
N#CN=C1N(Cc2ccc(O)cc2)C(Cc2ccccc2)C(O)C(O)C(Cc2ccccc2)N1Cc1ccc(O)cc1 (centres unmarked) [Example 1BU],IC90,[2]; [6],< 10 µg/mL
same,melting point,,103.3 °C
same,Ki,[3]; Ki,< 0.01 µM
N#CN=C1N(Cc2ccc(OCc3ccccc3)cc2)C(Cc2ccccc2)C(O)C(O)C(Cc2ccccc2)N1Cc1ccc(OCc2ccccc2)cc1 (centres unmarked) [Example 1BT],IC90,[2]; [6],> 100 µg/mL
same,melting point,,90.1 °C
same,Ki,[3]; Ki,0.01 to 1 µM
O=C1[C@@H](Cc2ccccc2)C[C@@H](O)[C@@H](Cc2ccccc2)N1Cc1ccccc1 [Example 25A],Ki,[1],> 1 µM
